The values below come from publication PMC8345219 (Cancers, 2021).

A short description of data set [1]: Investigation of plasma stability (Tam-labeled peptides, RP-HPLC). In kind it is in vitro ADME. As to conditions: Tam-modified peptides, 10^−5 M in human blood plasma, 37 °C; one-phase decay.
Description: Investigation of peptide stability in blood plasma was carried out as described previously [22]. Tam-labeled peptides were dissolved in human blood plasma at a concentration of 10^−5 M and incubated at 37 °C and 250 rpm. Samples taken at the respective time points were added to a solution of 0.1% SDS in ACN/EtOH (1:1). After incubation at −20 °C for 20 min, the supernatant was transferred to a new tube and incubated again at −20 °C for at least 3 h. […] Peaks were integrated, and the peak containing the intact peptide was normalized to the sample taken at t = 0 min (100%). Plasma half-life was determined using one-phase decay in Prism 5 (GraphPad, San Diego, CA, USA).
The next data set concerns the target T1, hCMKLR1 (Homo sapiens, UniProt Q99788).
T1 sequence (Q99788 1-373): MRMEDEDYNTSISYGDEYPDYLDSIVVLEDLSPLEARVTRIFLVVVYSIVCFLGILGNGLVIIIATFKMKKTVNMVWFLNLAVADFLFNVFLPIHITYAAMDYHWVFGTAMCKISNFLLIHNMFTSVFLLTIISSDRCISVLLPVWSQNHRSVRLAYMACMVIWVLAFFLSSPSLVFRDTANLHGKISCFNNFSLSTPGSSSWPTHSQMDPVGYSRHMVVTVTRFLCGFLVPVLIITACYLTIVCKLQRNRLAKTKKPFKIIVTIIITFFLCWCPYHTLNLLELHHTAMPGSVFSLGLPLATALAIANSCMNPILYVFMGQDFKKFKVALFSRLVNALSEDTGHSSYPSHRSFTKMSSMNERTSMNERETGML
Nature of the data set: Calcium flux assay in COS-7 cells transfected with hCMKLR1_eYFP_GαΔ6qi4myr. In general terms: Calcium assays in cells follow changes in intracellular calcium, usually with a dye or a luminescent sensor.

The test system of data set [2] is HEK293 cells stably transfected with CMKLR1-eYFP. Nature of the data set: Resazurin-based cell viability assay, HEK293-CMKLR1. As to conditions: HEK293-CMKLR1. The protocol:
(§1) HEK293 cells stably transfected with CMKLR1-eYFP, empty HEK293 cells (15,000 cells in 100 µL suspension/well), or HMEC-1 cells (5000 cells in 100 µL suspension/well) in their respective cell culture media were seeded in 96 well plates (coated with poly D-lysine for HEK cells) and incubated at standard conditions overnight. Afterward, cells were incubated with peptides or MTX dissolved in cell culture media, and a medium without peptides was used as a control. […] Ethanol or media was removed and a 50 µL resazurin-based in vitro toxicology assay kit (Sigma-Aldrich, St. Lous, MO, USA) in cell culture media (1:10) was added to each well. After 1 h incubation time, the conversion of the resazurin was detected by measuring the fluorescence intensity at λem = 590 nm. All experiments were performed in duplicates and each experiment was repeated at least three times. Nonlinear regression was calculated using GraphPad Prism 5, curves were normalized to untreated and ethanol-treated cells.
A general note: Resazurin is reduced to fluorescent resorufin, in cell work by metabolically active cells.

Data set [3] deals with untransfected HEK293 cells. Nature of the data set: Resazurin-based cell viability assay, untransfected HEK293. As to conditions: HEK293 cells devoid of CMKLR1, 72 h. Here is the method:
as §1

The nature of another data set: human blood plasma. As to conditions: 37 °C, up to 24 h.
Data set [4] deals with HEK293 cells stably transfected with CMKLR1-eYFP. The data set is described as follows: Quantification of peptide uptake using a High Content Imager. In kind it is cell-based. As to conditions: 1 µM Tam-labeled peptide, up to 1 h. The protocol:
Cells were stimulated with 1 µM of the respective, Tam-labeled peptide for the specified periods, followed by washing with acidic wash (50 mM glycine, 100 mM NaCl, pH 3) in HBSS. Microscopy was carried out in OptiMEM using an ImageXpress Micro Confocal High-Content Imaging System (Molecular Devices, San José, CA, USA), using the appropriate filters for the respective fluorophores (Table 1). The fluorescence intensity per cell was automatically analyzed for each well by a module detecting the nuclei (5–30 µm in diameter and 100 gray levels above background) and the granules by Tam-peptide fluorescence (2–5 µm in diameter, 70 gray levels above background).

Data set [5] concerns the target chemokine-like receptor 1 fused to eYFP (hCMKLR1-eYFP) (human) (UniProt Q99788).
The target is the same in data set [6]. This is another data set of the same source.
[7] abbreviates: EC50, Ca^2+ flux, normalized to chemerin-9 curve.

“Also recorded” adds a separate entry of the source. *1 amine or outer side, *2 acyl side, *3 side chain or, on linkers, in order; H or OH if unused. Where a SMILES comes first, the peptide text is derived from it. Bridges are numbered along the chain shown (N, C = ends). Primed or numbered codes have the meaning given here. Where no end group is shown, it is not given here. [ ]: non-standard residue; d: D form. The star is where a group is joined. Tam = 6-carboxy tetramethylrhodamine, CN(C)c1ccc2c(-c3cc(C(=O)*)ccc3C(=O)[O-])c3ccc(N(C)C)cc3[o+]c2c1; X1 = CN(C)c1ccc2c(c1)Oc1cc(N(C)C)ccc1C21OC(=O)c2ccc(C(=O)*)cc21; EG(4) = polyethylene glycol with four ethylene glycol units; hCys = N[C@@H](CCS)C(=O)O; CH2 = C([*:1])[*:2] A value given as a limit tells only on which side of the number the result lay.

For `CN(C)c1ccc2c(c1)Oc1cc(N(C)C)ccc1C21OC(=O)c2ccc(C(=O)N[C@@H](Cc3ccc(O)cc3)C(=O)N[C@@H](Cc3ccccc3)C(=O)N3CCC[C@H]3C(=O)N[C@@H]3CSSC[C@@H](C(=O)N[C@@H](Cc4ccccc4)C(=O)N[C@@H](CO)C(=O)O)NC(=O)[C@H](Cc4ccccc4)NC(=O)[C@H](CCC(N)=O)NC3=O)cc21` [Compound 2T, Tam-YFP(cQFCFS)] (X1-YFP[dC]QFCFS-OH; disulfide 4-7), in data set [1], the half-life (as a rule, how long it takes for the measured level to halve) was 45 min.

For the compound `CN(C)c1ccc2c(c1)Oc1cc(N(C)C)ccc1C21OC(=O)c2ccc(C(=O)N[C@@H](Cc3ccc(O)cc3)C(=O)N[C@@H](Cc3ccccc3)C(=O)N3CCC[C@H]3C(=O)N[C@@H]3CSCSC[C@@H](C(=O)N[C@@H](Cc4ccccc4)C(=O)N[C@@H](CO)C(=O)O)NC(=O)[C@H](Cc4ccccc4)NC(=O)[C@H](CCC(N)=O)NC3=O)cc21` [Compound 3T, Tam-YFP(c(CH2)QFCFS)] (X1-YFP[dC]QFCFS-OH; linker 4-7 via CH2), the half-life in data set [1] is 18 min. For the compound `C[C@@H]1NC(=O)[C@H](Cc2ccccc2)NC(=O)[C@H](CCC(N)=O)NC(=O)[C@H](NC(=O)[C@@H]2CCCN2C(=O)[C@H](Cc2ccccc2)NC(=O)[C@@H](N)Cc2ccc(O)cc2)CSSC[C@@H](C(=O)O)NC(=O)[C@H](Cc2ccccc2)NC1=O` [Compound 4, YFP(cQFAFC)] (H-YFP[dC]QFAFC-OH; disulfide 4-9), at hCMKLR1 (pEC50 ± SEM, Ca^2+ flux), the concentration giving a half-maximal response (EC50) (commonly the midpoint of the concentration-response curve) was 0.0643 µM. In data set [1], `C[C@@H]1NC(=O)[C@H](Cc2ccccc2)NC(=O)[C@H](CCC(N)=O)NC(=O)[C@H](NC(=O)[C@@H]2CCCN2C(=O)[C@H](Cc2ccccc2)NC(=O)[C@H](Cc2ccc(O)cc2)NC(=O)c2ccc3c(c2)C2(OC3=O)c3ccc(N(C)C)cc3Oc3cc(N(C)C)ccc32)CSSC[C@@H](C(=O)O)NC(=O)[C@H](Cc2ccccc2)NC1=O` [Compound 4T, Tam-YFP(cQFAFC)] (X1-YFP[dC]QFAFC-OH; disulfide 4-9) showed a half-life of more than 1440 min. For `C[C@@H]1NC(=O)[C@H](Cc2ccccc2)NC(=O)[C@H](CCC(N)=O)NC(=O)[C@H](NC(=O)[C@@H]2CCCN2C(=O)[C@H](Cc2ccccc2)NC(=O)[C@@H](N)Cc2ccc(O)cc2)CSCSC[C@@H](C(=O)O)NC(=O)[C@H](Cc2ccccc2)NC1=O` [Compound 5, YFP(c(CH2)QFAFC)] (H-YFP[dC]QFAFC-OH; linker 4-9 via CH2), the concentration for a half-maximal effect (EC50) on hCMKLR1 (setting [7]) was 0.013 µM; at hCMKLR1 (pEC50 ± SEM, Ca^2+ flux), 0.0129 µM. On to `C[C@@H]1NC(=O)[C@H](Cc2ccccc2)NC(=O)[C@H](CCC(N)=O)NC(=O)[C@H](NC(=O)[C@@H]2CCCN2C(=O)[C@H](Cc2ccccc2)NC(=O)[C@H](Cc2ccc(O)cc2)NC(=O)c2ccc3c(c2)C2(OC3=O)c3ccc(N(C)C)cc3Oc3cc(N(C)C)ccc32)CSCSC[C@@H](C(=O)O)NC(=O)[C@H](Cc2ccccc2)NC1=O` [Compound 5T, Tam-YFP(c(CH2)QFAFC)] (X1-YFP[dC]QFAFC-OH; linker 4-9 via CH2), for which, in data set [1], the half-life is more than 1440 min.

`C[C@@H]1NC(=O)[C@H](Cc2ccccc2)NC(=O)[C@H](CCC(N)=O)NC(=O)[C@H](NC(=O)[C@@H]2CCCN2C(=O)[C@H](Cc2ccccc2)NC(=O)[C@@H](N)Cc2ccc(O)cc2)CSCSCC[C@@H](C(=O)O)NC(=O)[C@H](Cc2ccccc2)NC1=O` [Compound 6, YFP(c(CH2)QFAFX)] (H-YFP[dC]QFAF[hCys]-OH; linker 4-9 via CH2): the EC50 was 0.037 µM at hCMKLR1 (setting [7]) and 0.0372 µM on hCMKLR1 (pEC50 ± SEM, Ca^2+ flux).

The compound `C[C@@H]1NC(=O)[C@H](Cc2ccccc2)NC(=O)[C@H](CCC(N)=O)NC(=O)[C@H](NC(=O)[C@@H]2CCCN2C(=O)[C@H](Cc2ccccc2)NC(=O)[C@H](Cc2ccc(O)cc2)NC(=O)c2ccc3c(c2)C2(OC3=O)c3ccc(N(C)C)cc3Oc3cc(N(C)C)ccc32)CSCSCC[C@@H](C(=O)O)NC(=O)[C@H](Cc2ccccc2)NC1=O` [Compound 6T, Tam-YFP(c(CH2)QFAFX)] (X1-YFP[dC]QFAF[hCys]-OH; linker 4-9 via CH2) came in with a half-life in data set [1] of more than 1440 min. Still for that read-out and setting: to `CN(C)c1ccc2c(c1)Oc1cc(N(C)C)ccc1C21OC(=O)c2ccc(C(=O)NCCCC[C@@H]3NC(=O)[C@H](Cc4ccccc4)NC(=O)[C@H](CCC(N)=O)NC(=O)[C@H](NC(=O)[C@@H]4CCCN4C(=O)[C@H](Cc4ccccc4)NC(=O)[C@@H](N)Cc4ccc(O)cc4)CSSC[C@@H](C(=O)O)NC(=O)[C@H](Cc4ccccc4)NC3=O)cc21` [Compound 7T, YFP(cQFK(Tam)FC)] (H-YFP[dC]QFK(X1)FC-OH; disulfide 4-9) belongs less than 12 min; to `CN(C)c1ccc2c(c1)Oc1cc(N(C)C)ccc1C21OC(=O)c2ccc(C(=O)NCCCC[C@@H]3NC(=O)[C@H](Cc4ccccc4)NC(=O)[C@H](CCC(N)=O)NC(=O)[C@H](NC(=O)[C@@H]4CCCN4C(=O)[C@H](Cc4ccccc4)NC(=O)[C@H](N)Cc4ccc(O)cc4)CSSC[C@@H](C(=O)O)NC(=O)[C@H](Cc4ccccc4)NC3=O)cc21` [Compound 8T, yFP(cQFK(Tam)FC)] (H-[dY]FP[dC]QFK(X1)FC-OH; disulfide 4-9), more than 1440 min.

Turning to `C[C@@H]1NC(=O)[C@H](Cc2ccccc2)NC(=O)[C@H](CCC(N)=O)NC(=O)[C@H](NC(=O)[C@@H]2CCCN2C(=O)[C@H](Cc2ccccc2)NC(=O)[C@H](N)Cc2ccc(O)cc2)CSCSCC[C@@H](C(=O)O)NC(=O)[C@H](Cc2ccccc2)NC1=O` [Compound 10, yFP(c(CH2)QFAFX)] (H-[dY]FP[dC]QFAF[hCys]-OH; linker 4-9 via CH2), the concentration giving a half-maximal response (EC50) on hCMKLR1 (setting [7]) is 0.028 µM; at hCMKLR1 (pEC50 ± SEM, Ca^2+ flux), 0.028 µM. For Mtx-GFLGK(Ac)YFP(xQFAFC) [Compound 15], in data set [2], the “increase in toxicity compared to MTX itself” value is “almost eightfold increase in toxicity”. Also, the “toxicity (in words)” value in data set [3] is “exerted no toxicity; also recorded: not toxic at concentrations up to 10 µM”.

Regarding Tam-EG(4)-YFP(xQFAFC), the not cleaved entry in “human blood plasma” is “not degraded in blood plasma for at least 24 h; t1/2 >48 h”.

“Tam-EG(4)-YFPGQFAAS ({Tam-EG(4)}-YFPGQFAAS) [Compound 13T, alanine-substituted Tam-labeled linear peptide, negative control]”: the “intracellular accumulation of Tam-fluorescence over time” value in data set [4] is recorded as “did not accumulate in the cells”. As to Tam-YFP(c(CH2)QFAFC), in the data set “human blood plasma”, the not cleaved entry is reported as “same stability for 24 h; t1/2 >24 h”.

Turning to Tam-YFP(c(CH2)QFAFX), in the data set “human blood plasma”, the not cleaved result is listed as “same stability for 24 h; t1/2 >24 h”. The same measure, in the same setting: to “Tam-YFP(cQFAFC) (X1-YFP[dC]QFAFC-OH; disulfide 4-9)” belongs “remained completely intact for the course of the experiment (24 h); t1/2 >24 h”. For the compound “methotrexate conjugate 15, Mtx-GFLGK(Ac)YFP(xQFAFC) (peptide)”, the toxicity in a resazurin-based cell viability assay, HEK293 cells stably transfected with CMKLR1-eYFP, 72 h, IC50 (no toxicity on HEK293 cells devoid of CMKLR1 up to 10 µM) in data set [5] is 0.061 µM. Also, in data set [6], the toxicity in a resazurin-based cell viability assay, HMEC-1 cells endogenously expressing CMKLR1, 72 h, IC50 was determined as 2 µM.

Consider yFP(cQFK(Tam)FC), for which the not cleaved result in “human blood plasma” is recorded as “fully stable in blood plasma for 24 h; t1/2 >24 h”.
